What was measured:
Aedes aegypti [1] = assay: Y-tube olfactometer behavioral bioassay (spatial repellency); type: in vivo
Protocol: (§1) Aegypti and An. stephensi, and one species of sand fly, P. papatasi. Both the mosquitoes and the sand flies used in the study were from colonies maintained at the Walter Reed Army Institute of Research, Department of Entomology, Silver Spring, Md. This Y-tube bioassay system, equipped with CO2-enriched air (ca. 1 l/min) as an attractant, was made from three clear acrylic tubes (4″ diameter; 12″ length) with symmetrical 120° angles among the three tube arms; and a screen butterfly valve on the top part of the bottom releasing tube. These spatial repellency tests were carried out during 8:00 am-12:00 pm (photophase) time period for Ae. aegypti and 1:00-5:00 pm (shifted scotophase) time period for the species of night-flying mosquitoes and sand fly in a temperature and humidity controlled testing room (23-25° C. and 20-40% RH). Female mosquitoes or sand flies were stored at ˜25-26° C., 50-89% RH, 12:12 hr. (L/D), fed with 10% sucrose solution before testing. The candidate chemical (individual or mixture) dispenser and a blank control were placed in the upper left or right arm of the Y-tube before releasing 25-40, 6 to 10 day-old female mosquitoes (or 3 to 10 day-old sand flies) into the bottom tube via a small hole. After a 30-60 sec acclimation period, the butterfly screen valve (door) on the top of the bottom tube was opened. After 10 min., the valve was closed and the numbers of mosquitoes or sand flies in each arm (including the bottom tube) were counted. In order to minimize the position effect, the same experiment was repeated once with the treatment and blank control arms shifted using a new (clean) Y-tube olfactometer and a new batch of mosquitoes/sand flies. Data from these two replicates were pooled for χ2 goodness of fit test (df=1) between the treatment and blank control.

Anopheles stephensi [2] = assay: as above; type: in vivo
Protocol: as §1

Phlebotomus papatasi = assay: as above; type: in vivo
Protocol: as §1

[3] = test system: Aedes Aegypti, Anopheles stephensi and the sand fly P. papatasi; assay: Y-tube bioassay, statements pooled for the three species; type: in vivo, Aedes aegypti; Anopheles stephensi; Phlebotomus papatasi; conditions: clove oil ca. 10 mg/day, patchouli oil 15 mg/d, sesquiterpenes 1 to 35 mg/d release
Protocol: as §1

Aedes aegypti [4] = assay: K&D module behavioral bioassay (topical repellency, biting); type: in vivo
Protocol: (§2) The bioassays were conducted with a six-cell in vitro K&D module system, as disclosed in Klun and Debboun, J. Med. Entomol. 37:177-181 (2000), loaded with an “artificial blood” (CPDA+ATP) solution.
(§3) Clove essential oil, patchouli oil, and EAD-active potential repellents, β-caryophyllene, isocaryophyllene, (+)-longifolene, and their 1:1:1 mixture, plus α-guaiene, caryophyllene oxide, and a β-caryophyllene ketone, were tested using the six-cell in vitro K&D module system (Klun and Debboun, J. Med. Entomol. 37:177-181 (2000)) loaded with an “artificial blood” (CPDA+ATP) solution on both Ae. aegypti and An. stephensi in a dose-response fashion. The K&D in vitro assay system has three components: (1) a Plexiglas™ 29.7 cm.×7.1 cm K&D module composed of six adjacent cells, each designed to hold mosquitoes and each having a rectangular 3×4 cm floor hole that is opened and closed by a sliding door; (2) a Plexiglas™ six-well 29.7 cm×7.1 cm water water-bath warmed (38° C.) reservoir with six 3×4 cm wells designed to match the sliding-door openings of the K&D module base and to contain 6 mL warmed “artificial blood” wells covered with a collagen membrane; and (3) a 29.7 cm×7.1 cm'0.4 cm Teflon® separator having six rectangular openings like the K&D module. The K&D module was connected to a constant temperature water circulator at 38° C. The cells were covered with an Edicol collagen membrane strip. Nylon organdy strips with ink cell patterns were numbered and randomly treated with […] of the tested chemical in ethanol (ethanol alone as blank control), plus DEET (ca. 10 μg/cm^2) as a positive control. This treated nylon organdy strip was placed on top of the collagen membrane. The upper section of the K & D module with the six cells each containing 5 mosquitoes (5-10 d old, starved for 24 hr before testing) was placed on top of the nylon strip. The doors to the cells were slid open so the mosquitoes could be free to feed on the “artificial blood” via the collagen membrane if they were hungry. The experiments were allowed to run for 3 minutes, and the number of mosquitoes feeding (biting) in each cell was recorded. After each experiment, the nylon and collagen strips were removed. The CPDA+ATP solution was removed and allowed to dry prior to starting the next experiment. The experiments on each chemical and each mosquito species were run three times before the bottom section with circulated water was cleaned prior to use again.

Anopheles stephensi [5] = assay: as above; type: in vivo
Protocol: as §2, §3

[6] = test system: antennae of housefly, sand fly, and mosquitoes (Aedes aegypti, Aedes increpitus, Anopheles gambiae); assay: GC-EAD antennal responses to SPME samples of patchouli essential oil; conditions: component of patchouli essential oil SPME sample; response by one or more of the insects; FIG. 2
Protocol: (§4) The following procedures were employed to test the EAD response of an insect antenna to a repellent compound. The GC-EAD technique provides an efficient tool for screening behaviorally active repellents. Several synthetic mixtures of potential insect repellent candidates, mostly sesquiterpene hydrocarbons and derivatives, were analyzed in splitless mode using a Varian CP-3800 GC equipped with a polar column (Innowax; 1.0 μm film thickness, 30 m×0.53 mm ID; J & W Scientific), and a 1:1 effluent splitter that allowed simultaneous flame ionization detection (FID) and EAD of the separated volatile compounds. Helium was used as the carrier gas, and the injector temperature was 220° C. The column temperature was 50° C. for 2 min, rising to 240° C. at 10° C./min, then held for 10 min. The outlet for the EAD was held in a humidified air stream flowing at 0.5 liter/min. over an antennal preparation. A glass capillary indifferent electrode filled with Beadle-Ephrussi Ringer, and grounded via a silver wire, was inserted into the severed insect's head with the antennae. A similar recording electrode connected to a high-impedance DC amplifier with automatic baseline drift compensation was placed in contact with the distal end of one antenna (Zhang et al., Chemoecology, 10:69-80 (2000)). The antennal signals were stored and analyzed on a PC equipped with a serial IDAC interface box and the program EAD ver. 2.5 (Syntech, Hilversum, The Netherlands). The compound 1-octen-3-ol (known attractant for many flies and mosquitoes) was included in most of the synthetic mixtures, as a positive control.

[7] = test system: antennae of housefly, sand fly, and mosquitoes Aedes aegypti, Anopheles gambiae, Anopheles stephensi; assay: GC-EAD antennal responses to SPME samples of clove essential oil; conditions: component of clove essential oil SPME sample; response by one or more of the insects; FIG. 1
Protocol: The GC-EAD antennal response of a female housefly (Musca domestica), sand fly (Phlebotomus papatasi), and mosquitoes including the species Aedes aegypti, Anopheles gambiae, and Anopheles stephensi were tested with clove essential oil. FIG. 1 is a simultaneous recording of GC flame ionization detection (FID) and electroantennographic detection (EAD) of the insect antennae to solid phase microextraction (SPME: CAR/PDMS) samples of clove essential oil in a 20 ml glass vial for 20 sec.
as §4, with “control. […]” for “control.”

[8] = Aedes aegypti females, release rate per chemical (1-60 mg/day), 10 min
[9] = Anopheles stephensi females, release rate per chemical (β-Caryophyllene 10 mg/day), 10 min
[10] = Phlebotomus papatasi females, release rate per chemical, 10 min
[11] = 10 μg/cm^2, DEET values are the positive control run with the chemical

## C=C(C)[C@@H]1CC[C@H](C)C2=C(C1)[C@@H](C)CC2 [α-Guaiene, α-guaiene]
Aedes aegypti [1]; [8]
  Number of mosquitoes in each arm: Blank: 49
  Number of mosquitoes in each arm: Bottom: 16
Aedes aegypti [1]; Aedes aegypti females, release rate per chemical (1-60 mg/day), 10 min, two replicates pooled
  Number of mosquitoes in each arm: Repellent: 13
Aedes aegypti [1]; Aedes aegypti, (Nc − Nt)/(Nc + Nt), −1 to 1, zero indicating no response
  SAI (Spatial Activity Index): 0.58
Anopheles stephensi [2]; Anopheles stephensi females, release rate per chemical (1-60 mg/day; β-Caryophyllene 10 mg/day), 10 min
  Number of mosquitoes in each arm: Repellent: 6
Anopheles stephensi [2]; [9]
  Number of mosquitoes in each arm: Blank: 20
  Number of mosquitoes in each arm: Bottom: 40
Anopheles stephensi [2]; Anopheles stephensi, β-Caryophyllene 10 mg/day
  SAI (Spatial Activity Index): 0.54
Phlebotomus papatasi; Phlebotomus papatasi
  SAI (Spatial Activity Index): 0.78
Phlebotomus papatasi; Phlebotomus papatasi (sand fly) females, release rate per chemical (1-35 mg/day), 10 min
  Number of mosquitoes in each arm: Repellent: 5
Phlebotomus papatasi; [10]
  Number of mosquitoes in each arm: Blank: 41
  Number of mosquitoes in each arm: Bottom: 17
[3]
  spatial repellency, in words: showed spatial repellency effects
Aedes aegypti [4]; [11]
  % of biting (±SE) (N = 3): 33 ± 7b %
Aedes aegypti [4]; 100 μg/cm^2
  % of biting (±SE) (N = 3): 0 ± 0a %
Aedes aegypti [4]; 500 μg/cm^2
  % of biting (±SE) (N = 3): 0 ± 0a %
Aedes aegypti [4]; 1000 μg/cm^2
  % of biting (±SE) (N = 3): 0 ± 0a %
Anopheles stephensi [5]; [11]
  % of biting (±SE) (N = 3): 40 ± 0b %
Anopheles stephensi [5]; 100 μg/cm^2
  % of biting (±SE) (N = 3): 0 ± 0a %
Anopheles stephensi [5]; 500 μg/cm^2
  % of biting (±SE) (N = 3): 0 ± 0a %
Anopheles stephensi [5]; 1000 μg/cm^2
  % of biting (±SE) (N = 3): 0 ± 0a %
[6]
  GC-EAD antennal activity: elicited EAD-activity

## C=CCc1ccc(O)c(OC)c1 [eugenol]
[7]
  GC-EAD antennal activity: EAD-inactive (or weakly active)
